Tests used:
[1] = test system: Echinochloa oryzoides (Ard.) Fritsch.; test: Preemergence weed control under flooded paddy conditions, ECHORC (Watergrass (Calif.)); format: in vivo; settings: flooded paddy; for herbicidal effect rating, ECHORC: preemergence, rated three to four weeks after treatment; for ECHORC: preemergence weeds, herbicidal effect rating 0-9, three to four weeks after treatment; as to herbicidal effect rating, ECHORC: meaning of each grade not given here
Cyperus iria = test: Preemergence weed control under flooded paddy conditions, CYPIR (Rice Flatsedge); format: in vivo; settings: flooded paddy; for herbicidal effect rating, CYPIR: preemergence, rated three to four weeks after treatment; for CYPIR: preemergence weeds, herbicidal effect rating 0-9, three to four weeks after treatment; as to herbicidal effect rating, CYPIR: meaning of each grade not given here
[2] = test system: Cyperus serotinus, Rottb.; test: Preemergence weed control under flooded paddy conditions, CYPSE (Flatsedge); format: in vivo; settings: for herbicidal effect rating, CYPSE: preemergence, rated three to four weeks after treatment; for CYPSE: preemergence weeds, herbicidal effect rating 0-9, three to four weeks after treatment; as to herbicidal effect rating, CYPSE: meaning of each grade not given here
[3] = test system: Monochoria vaginalis, Presl.; test: Preemergence weed control under flooded paddy conditions, MOOVA (Monochoria); format: in vivo; settings: flooded paddy; for herbicidal effect rating, MOOVA: preemergence, rated three to four weeks after treatment; for MOOVA: preemergence weeds, herbicidal effect rating 0-9, three to four weeks after treatment; as to herbicidal effect rating, MOOVA: meaning of each grade not given here
Sagittaria pygmaea, L. = test: Preemergence weed control under flooded paddy conditions, SAGPY (Arrowhead (Pygmaea)); format: in vivo; settings: flooded paddy; for herbicidal effect rating, SAGPY: preemergence, rated three to four weeks after treatment; for SAGPY: preemergence weeds, herbicidal effect rating 0-9, three to four weeks after treatment; as to herbicidal effect rating, SAGPY: meaning of each grade not given here
[4] = test system: Oryza sativa, (L.) Tebonnet; test: Rice tolerance to post-transplant applications under flooded paddy conditions (Example 187), ORYSAT (Rice, Tebonnet); settings: for herbicidal effect rating, ORYSAT (rice tolerance) / herbicidal effect rating ORYSAT: rated three to four weeks after treatment; for ORYSAT: herbicidal effect rating 0-9, three to four weeks after treatment; as to herbicidal effect rating ORYSAT: meaning of each grade not given here

CCc1ccc(OC)c(-c2nsc3ccc(-n4c(=O)cc(C(F)(F)F)n(C)c4=O)cc23)c1 [Example 45, 3-[3-(5-Ethyl-2-methoxyphenyl)-1,2-benzisothiazol-5-yl]-1-methyl-6-(trifluoromethyl)-2,4(1H,3H)-pyrimidinedione]
6.0: herbicidal effect rating, CYPIR (Cyperus iria; 0.0313 kg/ha) | herbicidal effect rating, SAGPY (Sagittaria pygmaea, L.; 0.2500 kg/ha)
9.0: herbicidal effect rating, ECHORC ([1]; 0.0313 kg/ha) | herbicidal effect rating, ECHORC ([1]; 0.0625 kg/ha) | herbicidal effect rating, ECHORC ([1]; 0.1250 kg/ha) | herbicidal effect rating, ECHORC ([1]; 0.2500 kg/ha) | herbicidal effect rating, CYPIR (Cyperus iria; 0.0625 kg/ha) | herbicidal effect rating, CYPIR (Cyperus iria; 0.1250 kg/ha) | herbicidal effect rating, CYPIR (Cyperus iria; 0.2500 kg/ha) | herbicidal effect rating, CYPSE ([2]; 0.1250 kg/ha) | herbicidal effect rating, CYPSE ([2]; 0.2500 kg/ha) | herbicidal effect rating, MOOVA ([3]; 0.0313 kg/ha) | herbicidal effect rating, MOOVA ([3]; 0.0625 kg/ha) | herbicidal effect rating, MOOVA ([3]; 0.1250 kg/ha) | herbicidal effect rating, MOOVA ([3]; 0.2500 kg/ha)
0.0: herbicidal effect rating, SAGPY (Sagittaria pygmaea, L.; 0.0313 kg/ha) | herbicidal effect rating, SAGPY (Sagittaria pygmaea, L.; 0.0625 kg/ha)
4.0: herbicidal effect rating, SAGPY (Sagittaria pygmaea, L.; 0.1250 kg/ha)
3.0: herbicidal effect rating, ORYSAT (rice tolerance) ([4]; 0.1250 kg/ha) | herbicidal effect rating, ORYSAT (rice tolerance) ([4]; 0.2500 kg/ha)
2.0: herbicidal effect rating, CYPSE ([2]; 0.0625 kg/ha) | herbicidal effect rating, ORYSAT (rice tolerance) ([4]; 0.0313 kg/ha) | herbicidal effect rating, ORYSAT (rice tolerance) ([4]; 0.0625 kg/ha)

Cn1c(C(F)(F)F)cc(=O)n(-c2ccc3snc(C(=O)NS(=O)(=O)c4ccc(Cl)cc4)c3c2)c1=O [Example 356, 1,2-Benzisothiazole-3-carboxamide, N-[(p-chlorophenyl)sulfonyl]-5-[3,6-dihydro-3-methyl-2,6-dioxo-4-(trifluoromethyl)-1(2H)-pyrimidinyl]-]
6.5: herbicidal effect rating, ECHORC ([1]; Rate 0.1250 kg/ha) | herbicidal effect rating, CYPIR (Cyperus iria; Rate 0.0320 kg/ha) | herbicidal effect rating, CYPSE ([2]; Rate 0.2500 kg/ha)
5.5: herbicidal effect rating, SAGPY (Sagittaria pygmaea, L.; Rate 0.1250 kg/ha)
5.0: herbicidal effect rating, ECHORC ([1]; Rate 0.0620 kg/ha) | herbicidal effect rating, CYPSE ([2]; Rate 0.1250 kg/ha)
8.0: herbicidal effect rating, SAGPY (Sagittaria pygmaea, L.; Rate 0.2500 kg/ha)
0.0: herbicidal effect rating, CYPSE ([2]; Rate 0.0320 kg/ha) | herbicidal effect rating, CYPSE ([2]; Rate 0.0620 kg/ha)
4.5: herbicidal effect rating, SAGPY (Sagittaria pygmaea, L.; Rate 0.0320 kg/ha) | herbicidal effect rating, SAGPY (Sagittaria pygmaea, L.; Rate 0.0620 kg/ha) | herbicidal effect rating ORYSAT ([4]; Rate 0.1250 kg/ha)
3.5: herbicidal effect rating, ECHORC ([1]; Rate 0.0320 kg/ha)
0.5: herbicidal effect rating ORYSAT ([4]; Rate 0.0320 kg/ha)
9.0: herbicidal effect rating, ECHORC ([1]; Rate 0.2500 kg/ha) | herbicidal effect rating, CYPIR (Cyperus iria; Rate 0.0620 kg/ha) | herbicidal effect rating, CYPIR (Cyperus iria; Rate 0.1250 kg/ha) | herbicidal effect rating, CYPIR (Cyperus iria; Rate 0.2500 kg/ha) | herbicidal effect rating, MOOVA ([3]; Rate 0.0620 kg/ha) | herbicidal effect rating, MOOVA ([3]; Rate 0.1250 kg/ha) | herbicidal effect rating, MOOVA ([3]; Rate 0.2500 kg/ha)
2.0: herbicidal effect rating ORYSAT ([4]; Rate 0.2500 kg/ha)
7.5: herbicidal effect rating, MOOVA ([3]; Rate 0.0320 kg/ha)
2.5: herbicidal effect rating ORYSAT ([4]; Rate 0.0620 kg/ha)

Cn1c(C(F)(F)F)cc(=O)n(-c2ccc3snc(COS(=O)(=O)c4ccccc4)c3c2)c1=O [Example 382, 2,4(1H,3H)-Pyrimidinedione, 3-[3-(hydroxymethyl)-1,2-benzisothiazol-5-yl]-1-methyl-6-(trifluoromethyl)-, benzenesulfonate (ester)]
6.0: herbicidal effect rating, CYPIR (Cyperus iria; Rate 0.0620 kg/ha) | herbicidal effect rating ORYSAT ([4]; Rate 0.0620 kg/ha) | herbicidal effect rating ORYSAT ([4]; Rate 0.1250 kg/ha)
0.0: herbicidal effect rating, ECHORC ([1]; Rate 0.0320 kg/ha) | herbicidal effect rating, CYPSE ([2]; Rate 0.0320 kg/ha) | herbicidal effect rating, CYPSE ([2]; Rate 0.0620 kg/ha)
4.0: herbicidal effect rating, ECHORC ([1]; Rate 0.1250 kg/ha) | herbicidal effect rating, SAGPY (Sagittaria pygmaea, L.; Rate 0.0620 kg/ha)
9.0: herbicidal effect rating, CYPIR (Cyperus iria; Rate 0.2500 kg/ha) | herbicidal effect rating, MOOVA ([3]; Rate 0.0320 kg/ha) | herbicidal effect rating, MOOVA ([3]; Rate 0.0620 kg/ha) | herbicidal effect rating, MOOVA ([3]; Rate 0.1250 kg/ha) | herbicidal effect rating, MOOVA ([3]; Rate 0.2500 kg/ha) | herbicidal effect rating, SAGPY (Sagittaria pygmaea, L.; Rate 0.2500 kg/ha)
7.0: herbicidal effect rating, ECHORC ([1]; Rate 0.2500 kg/ha) | herbicidal effect rating, CYPIR (Cyperus iria; Rate 0.1250 kg/ha) | herbicidal effect rating, CYPSE ([2]; Rate 0.1250 kg/ha) | herbicidal effect rating, CYPSE ([2]; Rate 0.2500 kg/ha) | herbicidal effect rating, SAGPY (Sagittaria pygmaea, L.; Rate 0.1250 kg/ha)
3.0: herbicidal effect rating, ECHORC ([1]; Rate 0.0620 kg/ha) | herbicidal effect rating, SAGPY (Sagittaria pygmaea, L.; Rate 0.0320 kg/ha)
5.0: herbicidal effect rating, CYPIR (Cyperus iria; Rate 0.0320 kg/ha) | herbicidal effect rating ORYSAT ([4]; Rate 0.0320 kg/ha) | herbicidal effect rating ORYSAT ([4]; Rate 0.2500 kg/ha)

CCCCCCCOC(=O)c1nsc2ccc(-n3c(=O)cc(C(F)(F)F)n(C)c3=O)cc12 [Example 388, 1,2-Benzisothiazole-3-carboxylic acid, 5-[3,6-dihydro-3-methyl-2,6-dioxo-4-(trifluoromethyl)-1(2H)-pyrimidinyl]-, heptyl ester]
4.0: herbicidal effect rating, CYPIR (Cyperus iria; Rate 0.0320 kg/ha) | herbicidal effect rating, SAGPY (Sagittaria pygmaea, L.; Rate 0.0620 kg/ha) | herbicidal effect rating, SAGPY (Sagittaria pygmaea, L.; Rate 0.1250 kg/ha) | herbicidal effect rating ORYSAT ([4]; Rate 0.0620 kg/ha) | herbicidal effect rating ORYSAT ([4]; Rate 0.1250 kg/ha)
6.0: herbicidal effect rating, ECHORC ([1]; Rate 0.2500 kg/ha) | herbicidal effect rating, CYPSE ([2]; Rate 0.0320 kg/ha) | herbicidal effect rating, CYPSE ([2]; Rate 0.2500 kg/ha) | herbicidal effect rating ORYSAT ([4]; Rate 0.2500 kg/ha)
9.0: herbicidal effect rating, CYPIR (Cyperus iria; Rate 0.2500 kg/ha) | herbicidal effect rating, MOOVA ([3]; Rate 0.0320 kg/ha) | herbicidal effect rating, MOOVA ([3]; Rate 0.0620 kg/ha) | herbicidal effect rating, MOOVA ([3]; Rate 0.1250 kg/ha) | herbicidal effect rating, MOOVA ([3]; Rate 0.2500 kg/ha)
2.0: herbicidal effect rating, ECHORC ([1]; Rate 0.0620 kg/ha)
5.0: herbicidal effect rating, ECHORC ([1]; Rate 0.1250 kg/ha)
3.0: herbicidal effect rating, SAGPY (Sagittaria pygmaea, L.; Rate 0.0320 kg/ha) | herbicidal effect rating ORYSAT ([4]; Rate 0.0320 kg/ha)
0.0: herbicidal effect rating, ECHORC ([1]; Rate 0.0320 kg/ha)
7.0: herbicidal effect rating, CYPIR (Cyperus iria; Rate 0.0620 kg/ha) | herbicidal effect rating, CYPIR (Cyperus iria; Rate 0.1250 kg/ha) | herbicidal effect rating, SAGPY (Sagittaria pygmaea, L.; Rate 0.2500 kg/ha)

Cn1c(C(F)(F)F)cc(=O)n(-c2ccc3snc(C4(C#N)CC4)c3c2)c1=O [Example 446, Cyclopropanecarbonitrile, 1-{5-[3,6-dihydro-3-methyl-2,6-dioxo-4-(trifluoromethyl)-1(2H)-pyrimidinyl]-1,2-benzisothiazol-3-yl}-]
6.0: ECHORC ([1]; 0.0320 kg/ha) | ECHORC ([1]; 0.0620 kg/ha) | ORYSAT ([4]; 0.0320 kg/ha)
7.0: ECHORC ([1]; 0.1250 kg/ha) | ORYSAT ([4]; 0.0620 kg/ha)
9.0: ECHORC ([1]; 0.2500 kg/ha) | CYPIR (Cyperus iria; 0.0320 kg/ha) | CYPIR (Cyperus iria; 0.0620 kg/ha) | CYPIR (Cyperus iria; 0.1250 kg/ha) | CYPIR (Cyperus iria; 0.2500 kg/ha) | CYPSE ([2]; 0.0320 kg/ha) | CYPSE ([2]; 0.0620 kg/ha) | CYPSE ([2]; 0.1250 kg/ha) | CYPSE ([2]; 0.2500 kg/ha) | MOOVA ([3]; 0.0320 kg/ha) | MOOVA ([3]; 0.0620 kg/ha) | MOOVA ([3]; 0.1250 kg/ha) | MOOVA ([3]; 0.2500 kg/ha) | SAGPY (Sagittaria pygmaea, L.; 0.0320 kg/ha) | SAGPY (Sagittaria pygmaea, L.; 0.0620 kg/ha) | SAGPY (Sagittaria pygmaea, L.; 0.1250 kg/ha) | SAGPY (Sagittaria pygmaea, L.; 0.2500 kg/ha) | ORYSAT ([4]; 0.1250 kg/ha) | ORYSAT ([4]; 0.2500 kg/ha)

CCCCS(=O)(=O)NC(=O)C(C)Oc1ccc(C)cc1-c1nsc2ccc(-n3c(=O)cc(C(F)(F)F)n(C)c3=O)cc12 (stereo not drawn) [Example 575, Propionamide, N-(butylsulfonyl)-2-{{2-{5-[3,6-dihydro-3-methyl-2,6-dioxo-4-(trifluoromethyl)-1(2H)-pyrimidinyl]-1,2-benzisothiazol-3-yl}-p-tolyl}oxy}-]
6.0: herbicidal effect rating, ECHORC ([1]; Rate 0.1250 kg/ha) | herbicidal effect rating, CYPIR (Cyperus iria; Rate 0.2500 kg/ha)
3.0: herbicidal effect rating, SAGPY (Sagittaria pygmaea, L.; Rate 0.2500 kg/ha)
4.0: herbicidal effect rating, CYPIR (Cyperus iria; Rate 0.1250 kg/ha) | herbicidal effect rating, MOOVA ([3]; Rate 0.0320 kg/ha) | herbicidal effect rating, MOOVA ([3]; Rate 0.0620 kg/ha)
9.0: herbicidal effect rating, ECHORC ([1]; Rate 0.2500 kg/ha) | herbicidal effect rating, MOOVA ([3]; Rate 0.1250 kg/ha) | herbicidal effect rating, MOOVA ([3]; Rate 0.2500 kg/ha)
5.0: herbicidal effect rating, ECHORC ([1]; Rate 0.0620 kg/ha)
0.0: herbicidal effect rating, CYPIR (Cyperus iria; Rate 0.0320 kg/ha) | herbicidal effect rating, CYPIR (Cyperus iria; Rate 0.0620 kg/ha) | herbicidal effect rating, CYPSE ([2]; Rate 0.0320 kg/ha) | herbicidal effect rating, CYPSE ([2]; Rate 0.0620 kg/ha) | herbicidal effect rating, CYPSE ([2]; Rate 0.1250 kg/ha) | herbicidal effect rating, SAGPY (Sagittaria pygmaea, L.; Rate 0.0320 kg/ha) | herbicidal effect rating, SAGPY (Sagittaria pygmaea, L.; Rate 0.0620 kg/ha) | herbicidal effect rating, SAGPY (Sagittaria pygmaea, L.; Rate 0.1250 kg/ha) | herbicidal effect rating ORYSAT ([4]; Rate 0.0320 kg/ha) | herbicidal effect rating ORYSAT ([4]; Rate 0.0620 kg/ha) | herbicidal effect rating ORYSAT ([4]; Rate 0.1250 kg/ha)
2.0: herbicidal effect rating, ECHORC ([1]; Rate 0.0320 kg/ha) | herbicidal effect rating, CYPSE ([2]; Rate 0.2500 kg/ha) | herbicidal effect rating ORYSAT ([4]; Rate 0.2500 kg/ha)
